One assay has as its target Plasminogen (Homo sapiens, UniProt P00747). The assay can be described thus: Inhibition of human plasmin using Boc-Val-Leu-Lys-MCA as substrate by fluorescence assay.
In assay [1] the target is Urokinase-type plasminogen activator (Homo sapiens, UniProt P00749). The assay can be described thus: Inhibition of human urokinase using Pyr-Gly-Arg-MCA as substrate by fluorescence assay.
The next assay is filed under the species Homo sapiens. The assay can be described thus: Selectivity ratio of IC50 for human urokinase to IC50 for human plasmin.

Plasminogen, sequence (P00747 97-580 limits assumed): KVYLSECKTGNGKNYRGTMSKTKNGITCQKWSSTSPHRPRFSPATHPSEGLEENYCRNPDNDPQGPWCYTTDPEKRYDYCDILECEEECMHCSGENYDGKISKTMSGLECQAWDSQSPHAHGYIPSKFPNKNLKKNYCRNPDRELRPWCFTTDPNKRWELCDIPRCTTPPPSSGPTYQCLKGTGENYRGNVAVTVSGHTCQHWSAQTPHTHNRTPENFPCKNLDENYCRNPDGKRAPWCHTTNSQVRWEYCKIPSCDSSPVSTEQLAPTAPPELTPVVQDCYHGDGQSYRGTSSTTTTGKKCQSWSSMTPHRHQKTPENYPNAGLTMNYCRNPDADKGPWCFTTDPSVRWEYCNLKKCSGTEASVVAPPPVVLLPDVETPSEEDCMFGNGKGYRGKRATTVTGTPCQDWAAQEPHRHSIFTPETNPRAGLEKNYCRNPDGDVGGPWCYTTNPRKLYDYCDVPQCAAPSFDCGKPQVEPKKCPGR
Plasminogen, sequence (P00747 581-810 limits assumed): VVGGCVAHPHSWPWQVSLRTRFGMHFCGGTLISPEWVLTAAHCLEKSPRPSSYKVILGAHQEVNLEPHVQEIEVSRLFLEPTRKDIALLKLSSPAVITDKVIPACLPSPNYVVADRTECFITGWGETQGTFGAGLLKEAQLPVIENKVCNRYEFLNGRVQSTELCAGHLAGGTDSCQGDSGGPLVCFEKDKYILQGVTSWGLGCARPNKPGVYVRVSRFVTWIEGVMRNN

What is called IC50 is the midpoint of a concentration-inhibition curve. A low value points to higher potency. With `CC(C)C[C@H](c1nc2ccc(C(=O)N[C@H](C#N)CCCCN)cc2n1C)N1C(=O)CN(c2ccc(Oc3ccccc3)cc2)C1=O`, the IC50 stood at 7.7 µM against Plasminogen and 150 µM in assay [1].
For `C[C@@H](c1nc2ccc(C(=O)N[C@H](C#N)CCCCN)cc2n1C)N1C(=O)CN(c2ccc(Oc3ccncc3)cc2)C1=O`, the figures for the IC50 (against Plasminogen; in assay [1]) were 19 µM and more than 200 µM, respectively.
The corresponding values for `C[C@@H](c1nc2ccc(C(=O)N[C@H](C#N)CCCCN)cc2n1C)N1C(=O)CN(c2ccc(F)cc2)C1=O` are 25 µM and more than 200 µM.
Consider `C[C@H](c1nc2ccc(C(=O)N[C@H](C#N)CCCCN)cc2n1C)N1C(=O)CN(c2ccc(Oc3ccncc3)cc2)C1=O`, for which the concentration for half-maximal inhibition (IC50) is 12 µM against Plasminogen and more than 200 µM in assay [1].
Consider `CC[C@@H](C)[C@H](c1nc2ccc(C(=O)N[C@H](C#N)CCCCN)cc2n1C)N1C(=O)CN(c2ccc(Oc3ccccc3)cc2)C1=O`, for which the IC50 at Plasminogen was 6.7 µM; in assay [1], more than 200 µM.
For the molecule `C[C@H](c1nc2ccc(C(=O)N[C@H](C#N)CCCCN)cc2n1C)N1C(=O)CN(c2ccc(F)cc2)C1=O`, the 50% inhibitory concentration (IC50) against Plasminogen was 45 µM; in assay [1], more than 200 µM.
For `C[C@H](c1nc2ccc(C(=O)N[C@H](C#N)CCCCN)cc2n1C)N1C(=O)CN(c2ccc(Oc3ccccc3)cc2)C1=O`, the half-maximal inhibitory concentration (IC50) against Plasminogen is 19 µM; in assay [1], 160 µM.
Consider `CC(C)[C@@H](c1nc2ccc(C(=O)N[C@H](C#N)CCCCN)cc2n1C)N1C(=O)CN(c2ccc(Oc3ccccc3)cc2)C1=O`, for which the results for the concentration for half-maximal inhibition (IC50) (against Plasminogen; in assay [1]) were 28 µM and more than 200 µM, respectively.
Regarding `C[C@@H](c1nc2ccc(C(=O)N[C@H](C#N)CCCCN)cc2n1C)N1C(=O)CN(c2ccc(Oc3ccccc3)cc2)C1=O`, the IC50 against Plasminogen is 11 µM; in assay [1] it was more than 200 µM.
For the molecule `CC(C)[C@H](c1nc2ccc(C(=O)N[C@H](C#N)CCCCN)cc2n1C)N1C(=O)CN(c2ccc(Oc3ccccc3)cc2)C1=O`, the IC50 against Plasminogen is 4.9 µM; in assay [1], more than 200 µM. The Ratio IC50 in the assay filed under Homo sapiens stood at 40.
Molecule `Cn1c(CN2C(=O)CN(c3ccc(F)cc3)C2=O)nc2ccc(C(=O)N[C@H](C#N)CCCCN)cc21` showed a half-maximal inhibitory concentration (IC50) in assay [1] of more than 200 µM.
